From article PMC9019572, “Design, Synthesis, and Biological Evaluation of [1,2,4]triazolo[4,3-a] Pyrazine Derivatives as Novel Dual c-Met/VEGFR-2 Inhibitors” (Frontiers in Chemistry, 2022)
Read-outs that look alike come from different tables or passages of the source.

How the values were obtained:
[1] = tested on: A549 cells; assay: MTT antiproliferative assay, A549; type: cell-based; details: Homo sapiens, 72 h;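 also: formazan read-out dissolved in DMSO, each compound assayed three times, IC50 computed with Bliss software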
Procedure: The cell lines used in the experiment were available from the Cell Culture Collection of Chinese Academy of Sciences (Shanghai Institutes for Biological Sciences, Chinese Academy of Sciences). […] The formazan crystals were dissolved in 100 µl of DMSO in each well. […] All compounds were tested three times in each of the cell lines. The results, expressed as inhibition rates or IC50 (half-maximal inhibitory concentration), were the averages of two determinations and calculated by using the Bacus Laboratories Incorporated Slide Scanner (Bliss) software.

[2] = tested on: MCF-7 cells; assay: MTT antiproliferative assay, MCF-7; type: cell-based; details: Homo sapiens, read-out: IC50 MCF-7
Procedure: (§1) The cell lines used in the experiment were available from the Cell Culture Collection of Chinese Academy of Sciences (Shanghai Institutes for Biological Sciences, Chinese Academy of Sciences). Referring to the previous experimental methods of our research, all cells were cultured in suitable medium such as DMEM or RPMI-1640 containing 10% fetal bovine serum at 37°C in 5% CO2 and propagated for 24 h. Then the compounds with different gradient concentrations were added into the medium and incubated for 72 h, and then MTT (thiazolyl blue tetrazolium bromide) with a concentration of 5 µg/ml was added to every well for 4 h at 37°C. The formazan crystals were dissolved in 100 µl of DMSO in each well. The absorbancy at 492 nm (for absorbance of MTT formazan) and 630 nm (for the reference wavelength) was measured with an ELISA reader. All compounds were tested three times in each of the cell lines. The results, expressed as inhibition rates or IC50 (half-maximal inhibitory concentration), were the averages of two determinations and calculated by using the Bacus Laboratories Incorporated Slide Scanner (Bliss) software.

[3] = tested on: Hela cells; assay: MTT antiproliferative assay, Hela; type: cell-based; details: Homo sapiens, 72 h, read-out: IC50 Hela
Procedure: as §1

[4] = biological target: c-Met kinase (Homo sapiens, UniProt P08581); assay: c-Met kinase inhibition assay; type: biochemical
Chain of c-Met kinase (P08581 25-1390): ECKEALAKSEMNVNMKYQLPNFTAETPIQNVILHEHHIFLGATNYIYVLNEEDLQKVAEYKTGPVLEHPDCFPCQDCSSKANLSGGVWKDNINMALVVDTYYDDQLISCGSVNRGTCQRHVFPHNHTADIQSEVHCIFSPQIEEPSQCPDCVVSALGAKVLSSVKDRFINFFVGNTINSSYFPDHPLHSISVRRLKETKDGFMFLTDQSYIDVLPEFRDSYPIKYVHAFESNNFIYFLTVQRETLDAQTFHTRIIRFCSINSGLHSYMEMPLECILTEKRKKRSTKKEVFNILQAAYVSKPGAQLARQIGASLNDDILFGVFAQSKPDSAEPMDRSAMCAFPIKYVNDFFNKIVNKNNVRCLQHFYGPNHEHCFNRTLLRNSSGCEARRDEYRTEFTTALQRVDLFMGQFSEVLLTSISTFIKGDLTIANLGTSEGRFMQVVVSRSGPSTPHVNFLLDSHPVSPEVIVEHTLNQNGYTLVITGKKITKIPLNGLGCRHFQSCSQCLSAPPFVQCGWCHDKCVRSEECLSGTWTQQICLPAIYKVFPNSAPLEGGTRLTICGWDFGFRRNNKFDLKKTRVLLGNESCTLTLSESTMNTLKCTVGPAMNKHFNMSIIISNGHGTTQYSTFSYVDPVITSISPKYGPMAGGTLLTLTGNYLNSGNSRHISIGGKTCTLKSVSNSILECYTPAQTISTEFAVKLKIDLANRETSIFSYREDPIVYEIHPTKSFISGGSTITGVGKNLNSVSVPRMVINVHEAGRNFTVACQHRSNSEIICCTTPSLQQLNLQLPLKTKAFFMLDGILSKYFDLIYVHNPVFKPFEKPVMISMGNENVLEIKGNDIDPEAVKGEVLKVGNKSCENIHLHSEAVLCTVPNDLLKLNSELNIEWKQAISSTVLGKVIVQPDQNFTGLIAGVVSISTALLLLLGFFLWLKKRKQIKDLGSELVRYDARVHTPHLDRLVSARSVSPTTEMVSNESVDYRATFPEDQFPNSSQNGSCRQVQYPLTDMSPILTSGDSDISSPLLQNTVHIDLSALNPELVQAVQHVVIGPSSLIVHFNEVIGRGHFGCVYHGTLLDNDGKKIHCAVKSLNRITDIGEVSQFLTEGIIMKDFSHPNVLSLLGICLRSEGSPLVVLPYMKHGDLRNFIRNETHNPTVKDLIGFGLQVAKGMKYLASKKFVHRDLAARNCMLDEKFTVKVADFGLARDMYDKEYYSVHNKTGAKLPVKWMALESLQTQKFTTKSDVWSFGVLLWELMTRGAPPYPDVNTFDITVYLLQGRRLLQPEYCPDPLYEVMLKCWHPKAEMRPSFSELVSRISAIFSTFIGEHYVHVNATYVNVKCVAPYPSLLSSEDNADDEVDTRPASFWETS
Procedure: The kinase assay was performed by Pratzer Biotechnology Co. Ltd. (Changsha, China).

[5] = tested on: PC-9 cells; assay: Antiproliferative activity, PC-9; type: cell-based; details: Homo sapiens
Procedure: as §1

[6] = tested on: H460 cells; assay: Antiproliferative activity, H460; type: cell-based; details: Homo sapiens, NCI-H460
Procedure: as §1

[7] = tested on: H1975 cells; assay: Antiproliferative activity, H1975; type: cell-based; details: Homo sapiens, NCI-H1975
Procedure: as §1

| Structure (SMILES) | IC50 [1] | IC50 ([2]; MCF7, MTT, 72 h, MCF-7 cells) | IC50 ([3]; MTT, Hela cells) | IC50 [4] | melting point | IC50 [5] | IC50 [6] | IC50 [7] | IC50 ([2]; MCF7, 72 h) | IC50 ([3]; HeLa) |
| --- | --- | --- | --- | --- | --- | --- | --- | --- | --- | --- |
| Cc1nc(-c2ccccc2)sc1C(=O)Nc1ccc(Oc2nccn3cnnc23)c(F)c1 [16 g] | 8.21 ± 0.65 µM | 9.17 ± 1.03 µM | 17.7 ± 1.29 µM | 0.658 µM | 278.1 to 282.7 °C | – | – | – | – | – |
| Cc1nc(-c2ccccn2)sc1C(=O)Nc1ccc(Oc2nccn3cnnc23)c(F)c1 [16 h] | 6.56 ± 0.42 µM | 8.18 ± 1.12 µM | 13.9 ± 1.59 µM | 0.437 µM | 203.4 to 207.6 °C | – | – | – | – | – |
| O=C(Nc1ccc(Oc2nccn3cnnc23)c(F)c1)c1cnn(-c2ccc(Cl)cc2)c1C(F)(F)F [16 k] | 6.18 ± 0.34 µM | 6.51 ± 0.63 µM | 12.9 ± 1.06 µM | 0.38 µM | – | – | – | – | – | – |
| Cc1nc(-c2ccccc2)sc1C(=O)Nc1ccc(Oc2nccn3c(C)nnc23)c(F)c1 [17 g] | – | – | – | – | 299 to 302.1 °C | – | – | – | – | – |
| Cc1nc(-c2ccccn2)sc1C(=O)Nc1ccc(Oc2nccn3c(C)nnc23)c(F)c1 [17 h] | 3.56 ± 0.32 µM | 4.25 ± 0.76 µM | 7.43 ± 0.38 µM | 0.156 µM | – | – | – | – | – | – |
| Cc1nc(-c2ccc(F)cc2)sc1C(=O)Nc1ccc(Oc2nccn3c(C)nnc23)c(F)c1 [17 k] | 15.3 ± 0.51 µM | 18.2 ± 1.28 µM | 25.3 ± 2.4 µM | – | – | – | – | – | – | – |
| Cc1nnc2c(Oc3ccc(NC(=O)c4cc(-c5cccs5)no4)cc3F)nccn12 [17 m] | 8.84 ± 0.97 µM | 9.34 ± 1.03 µM | 17.4 ± 1.56 µM | 0.653 µM | – | – | – | – | – | – |
| COc1cc2c(Oc3ccc(NC(=O)C4(C(=O)Nc5ccc(F)cc5)CC4)cc3F)ccnc2cc1OCCCN1CCOCC1 [Foretinib, foretinib, reference compound] | – | – | – | – | – | – | – | – | 0.93 ± 0.09 µM | 1.18 ± 0.25 µM |
| CNC(=O)c1cc(Oc2ccc(NC(=O)Nc3ccc(Cl)c(C(F)(F)F)c3)cc2)ccn1 [Sorafenib, sorafenib, reference compound] | – | – | – | – | – | 5.41 ± 0.73 µM | 5.27 ± 0.72 µM | 10.2 ± 1 µM | – | – |

The next lines start with results.

| IC50 [1] | IC50 ([2]; MCF7, MTT, 72 h, MCF-7 cells) | IC50 ([3]; MTT, Hela cells) | IC50 [4] | melting point | IC50 [5] | IC50 [6] | IC50 [7] | Structure (SMILES) | IC50 ([2]; MCF7, 72 h) | IC50 ([3]; HeLa) |
| --- | --- | --- | --- | --- | --- | --- | --- | --- | --- | --- |
| 12.4 ± 0.97 µM | 13.8 ± 1.23 µM | 21.5 ± 1.78 µM | 0.794 µM | 265.8 to 268.1 °C | – | – | – | Cc1nc(-c2ccccc2)sc1C(=O)Nc1ccc(Oc2nccn3cnnc23)cc1 [16a] | – | – |
| 6.46 ± 0.33 µM | 7.87 ± 0.42 µM | 12.2 ± 1.08 µM | 0.379 µM | – | – | – | – | Cc1nc(-c2ccccn2)sc1C(=O)Nc1ccc(Oc2nccn3cnnc23)cc1 [16b] | – | – |
| 5.58 ± 0.75 µM | 6.45 ± 0.81 µM | 14.3 ± 1.15 µM | 0.345 µM | 235.6 to 237.5 °C | – | – | – | Cc1nc(-c2ccncc2)sc1C(=O)Nc1ccc(Oc2nccn3cnnc23)cc1 [16c] | – | – |
| 12.3 ± 0.98 µM | 11.5 ± 1.06 µM | 19.5 ± 1.94 µM | 0.722 µM | 261.3 to 263.5 °C | – | – | – | O=C(Nc1ccc(Oc2nccn3cnnc23)cc1)c1cnn(-c2ccc(Cl)cc2)c1C(F)(F)F [16d] | – | – |
| 5.44 ± 0.42 µM | 7.13 ± 0.63 µM | 11.2 ± 0.96 µM | 0.342 µM | – | – | – | – | O=C(Nc1ccc(Oc2nccn3cnnc23)cc1)c1cc(-c2cccs2)n[nH]1 [16e] | – | – |
| 27.3 ± 0.86 µM | > 50 µM | > 50 µM | > 1 µM | 291.5 to 293.1 °C | – | – | – | O=C(Nc1ccc(Oc2nccn3cnnc23)cc1)c1cc(-c2cccs2)no1 [16f] | – | – |
| 17.4 ± 0.97 µM | 19 ± 1.32 µM | 25 ± 2.17 µM | – | – | – | – | – | Cc1nc(-c2cccnc2)sc1C(=O)Nc1ccc(Oc2nccn3cnnc23)c(F)c1 [16i] | – | – |
| 3.26 ± 0.67 µM | 3.68 ± 0.34 µM | 6.17 ± 0.58 µM | 0.11 µM | 226.9 to 229.1 °C | – | – | – | Cc1nc(-c2ccncc2)sc1C(=O)Nc1ccc(Oc2nccn3cnnc23)c(F)c1 [16j] | – | – |
| 11.4 ± 0.76 µM | 12 ± 1.24 µM | 23.3 ± 2.12 µM | 0.725 µM | – | – | – | – | O=C(Nc1ccc(Oc2nccn3cnnc23)c(F)c1)c1cc(-c2cccs2)no1 [16l] | – | – |
| 1.23 ± 0.13 µM | 1.43 ± 0.21 µM | 2.31 ± 0.29 µM | 0.055 µM | – | – | – | – | Cc1nc(-c2ccccc2)sc1C(=O)Nc1ccc(Oc2nccn3c(C)nnc23)cc1 [17a] | – | – |
| 4.31 ± 0.49 µM | 5.15 ± 0.72 µM | 9.46 ± 0.58 µM | 0.245 µM | – | – | – | – | Cc1nc(-c2ccccn2)sc1C(=O)Nc1ccc(Oc2nccn3c(C)nnc23)cc1 [17b] | – | – |
| 7.68 ± 0.71 µM | 8.79 ± 0.89 µM | 15.9 ± 1.1 µM | 0.532 µM | 270.7 to 273.8 °C | – | – | – | Cc1nc(-c2ccncc2)sc1C(=O)Nc1ccc(Oc2nccn3c(C)nnc23)cc1 [17c] | – | – |
| 5.21 ± 0.37 µM | 6.95 ± 0.67 µM | 10.7 ± 1.42 µM | 0.289 µM | – | – | – | – | Cc1nc(-c2ccc(F)cc2)sc1C(=O)Nc1ccc(Oc2nccn3c(C)nnc23)cc1 [17d] | – | – |
| 2.05 ± 0.19 µM | 1.74 ± 0.22 µM | 4.78 ± 0.43 µM | 0.077 µM | – | – | – | – | Cc1nnc2c(Oc3ccc(NC(=O)c4cnn(-c5ccc(Cl)cc5)c4C(F)(F)F)cc3)nccn12 [17e] | – | – |
| 5.73 ± 0.54 µM | 6.38 ± 0.85 µM | 12.4 ± 1.53 µM | 0.3 µM | 275.6 to 278.1 °C | – | – | – | Cc1nnc2c(Oc3ccc(NC(=O)c4cc(-c5cccs5)n[nH]4)cc3)nccn12 [17f] | – | – |
| 188 µM | 25.4 ± 1.54 µM | > 50 µM | – | 220.7 to 223.1 °C | – | – | – | Cc1nc(-c2cccnc2)sc1C(=O)Nc1ccc(Oc2nccn3c(C)nnc23)c(F)c1 [17i] | – | – |
| 7.16 ± 0.45 µM | 7.31 ± 0.77 µM | 14.2 ± 1.64 µM | 0.45 µM | – | – | – | – | Cc1nc(-c2ccncc2)sc1C(=O)Nc1ccc(Oc2nccn3c(C)nnc23)c(F)c1 [17j] | – | – |
